Patent US5053395A, “Pradimicin amide derivatives” (Bristol-Myers Company, priority 1989, dated 1991)
Values after ≈ are worked out from the molar mass of the structure shown.

Columns and labels:
[1] = tested on: C. neoformans; experiment: In vitro antifungal activity, MIC by serial agar dilution method (C. neoformans); format: cell-based; details: Sabouraud dextrose agar, 44 hours at 28° C.; for MIC: Cryptococcus neoformans
Procedure: (§1) Antifungal activities of representative compounds of the present invention were evaluated both in vitro and in vivo. The minimum inhibitory concentrations (MICs) against various fungi were determined by serial agar dilution method using Sabouraud dextrose agar. Thus, approximately 0.003 ml of fungal suspension containing 10^6 cells/ml was applied to the surface of agar plates containing the test antibiotics. The MIC values recorded after the cultures had been incubated for 44 hours at 28° C. are set forth below in Table I.

[2] = tested on: A. fumigatus; experiment: In vitro antifungal activity, MIC by serial agar dilution method (A. fumigatus); format: cell-based; details: Sabouraud dextrose agar, 44 hours at 28° C.; for MIC: Aspergillus fumigatus
Procedure: as §1

[3] = tested on: T. mentagrophytes; experiment: In vitro antifungal activity, MIC by serial agar dilution method (T. mentagrophytes); format: cell-based; details: Sabouraud dextrose agar, 44 hours at 28° C.; for MIC: Trichophyton mentagrophytes
Procedure: as §1

[4] = tested on: C. albicans; experiment: In vitro antifungal activity, MIC by serial agar dilution method (C. albicans); format: cell-based; details: Sabouraud dextrose agar, 44 hours at 28° C.; for MIC: Candida albicans
Procedure: as §1

[5] = tested on: Candida albicans A9540; experiment: In vivo activity against Candida albicans A9540 infection in mice; details: A9540, 480 h, male ICR mice, intravenous just after i.v. infection, survival on 20th day, read-out: PD50 (dose that protects 50% of the animals from infection)
Procedure: In vivo activity of compounds of the present invention was tested against Candida albicans A9540 infection in mice. Test organisms were cultured for 18 hours at 28° C. in YGP medium (yeast extract, glucose, peptone, K2 HPO4, MgSO4) and then suspended in saline. Male ICR mice weighing 20 to 24 g were infected intravenously with about 10 times the median lethal dose of the test fungus. The antibiotic at various dose levels was administered to groups of 5 mice each intravenously just after the fungal infection. The dose that protects 50% of the animals from infection (PD50, mg/kg) was calculated from survival rates recorded on the 20th day after the fungal challenge. All control animals died within 7 to 15 days after infection. The PD50 for compounds of Examples 2, 4, and 5 are 18 mg/kg, 11 mg/kg and 8.8 mg/kg, respectively.

[6] = tested on: calcium ion and calmodulin-dependent cyclic nucleotide phosphodiesterase; details: cited from earlier work

Row | Compound | MIC [1] [µg/mL] | MIC [2] [µg/mL] | MIC [3] [µg/mL] | MIC [4] [µg/mL] | ED50 [5] [mg/kg] | inhibitor of calcium ion and calmodulin-dependent cyclic nucleotide phosphodiesterase [6] | MIC C. neoformans [1] [µg/mL] | MIC A. fumigatus [2] [µg/mL] | MIC T. mentagrophytes [3] [µg/mL] | MIC C. albicans [4] [µg/mL]
1 | CN[C@@H]1[C@H](O[C@@H]2OC[C@@H](O)[C@H](O)[C@H]2O)[C@@H](O)[C@H](O[C@H]2c3cc(C)c(C(=O)N[C@H](C)C(=O)N[C@H](C)C(=O)O)c(O)c3-c3c(cc4c(c3O)C(=O)c3cc(OC)cc(O)c3C4=O)[C@@H]2O)O[C@@H]1C [Example 1, D-alanyl Pradimicin A] | 6.3 (≈ 6.91 µM) | > 100 | > 100 | 25 (≈ 27.4 µM) |  |  |  |  |  | 
2 | CN[C@@H]1[C@H](O[C@@H]2OC[C@@H](O)[C@H](O)[C@H]2O)[C@@H](O)[C@H](O[C@H]2c3cc(C)c(C(=O)N[C@H](C)C(=O)N(C)C)c(O)c3-c3c(cc4c(c3O)C(=O)c3cc(OC)cc(O)c3C4=O)[C@@H]2O)O[C@@H]1C [Example 2, Pradimicin A Dimethylamide] | 1.6 (≈ 1.84 µM) | 6.3 (≈ 7.26 µM) | 12.5 (≈ 14.4 µM) | 12.5 (≈ 14.4 µM) | 18 |  |  |  |  | 
3 | CN[C@@H]1[C@H](O[C@@H]2OC[C@@H](O)[C@H](O)[C@H]2O)[C@@H](O)[C@H](O[C@H]2c3cc(C)c(C(=O)N[C@H](C)C(=O)NN)c(O)c3-c3c(cc4c(c3O)C(=O)c3cc(OC)cc(O)c3C4=O)[C@@H]2O)O[C@@H]1C [Example 3, Pradimicin A Hydrazide] | 3.1 (≈ 3.63 µM) | 25 (≈ 29.2 µM) | 25 (≈ 29.2 µM) | 50 (≈ 58.5 µM) |  |  |  |  |  | 
4 | CN[C@@H]1[C@H](O[C@@H]2OC[C@@H](O)[C@H](O)[C@H]2O)[C@@H](O)[C@H](O[C@H]2c3cc(C)c(C(=O)N[C@H](C)C(N)=O)c(O)c3-c3c(cc4c(c3O)C(=O)c3cc(OC)cc(O)c3C4=O)[C@@H]2O)O[C@@H]1C [Example 4, Pradimicin A Amide] | 1.6 (≈ 1.91 µM) | 6.3 (≈ 7.5 µM) | 12.5 (≈ 14.9 µM) | 6.3 (≈ 7.5 µM) | 11 |  |  |  |  | 
5 | CNC(=O)[C@@H](C)NC(=O)c1c(C)cc2c(c1O)-c1c(cc3c(c1O)C(=O)c1cc(OC)cc(O)c1C3=O)[C@H](O)[C@H]2O[C@@H]1O[C@H](C)[C@H](NC)[C@H](O[C@@H]2OC[C@@H](O)[C@H](O)[C@H]2O)[C@H]1O [Example 5, Pradimicin A Methylamide] | 1.6 (≈ 1.87 µM) | 6.3 (≈ 7.38 µM) | 6.3 (≈ 7.38 µM) | 6.3 (≈ 7.38 µM) | 8.8 |  |  |  |  | 
6 | CN[C@@H]1[C@H](O[C@@H]2OC[C@@H](O)[C@H](O)[C@H]2O)[C@@H](O)[C@H](O[C@H]2c3cc(C)c(C(=O)N[C@H](C)C(=O)NCC(=O)O)c(O)c3-c3c(cc4c(c3O)C(=O)c3cc(OC)cc(O)c3C4=O)[C@@H]2O)O[C@@H]1C [Example 7, Glycyl Pradimicin A] | 12.5 (≈ 13.9 µM) | > 50 | > 50 | > 50 |  |  |  |  |  | 
7 | CC(=O)Cc1cc2c(c(O)c1C(=O)O)-c1cc3c(c(O)c1CC2)C(=O)c1c(O)cc(O)cc1C3=O [KS-619-1] |  |  |  |  |  | inhibitor |  |  |  | 
8 | Pradimicin A Butylamide [Example 6] |  |  |  |  |  |  | 3.1 | 50 | 100 | 100
